Results published in ChEMBL document CHEMBL1134921 (Bioorg Med Chem Lett, 2002).

How the values were obtained:
[1] = biological target: Neuronal nicotinic acetylcholine receptor; experiment: Binding affinity against Nicotinic acetylcholine receptor using [3H](-)-nicotine radioligand; format: protein-complex assay
Mus musculus [2] = organism: Mus musculus; experiment: Effective dose for Antinociceptive activity was determined in mice using Tail -Flick Assay: The symbol > signifies that no effect was produced at that dose; format: functional
Rattus norvegicus [3] = organism: Rattus norvegicus; experiment: Effective dose for Antinociceptive activity was determined in rat using drug discrimination assay: The symbol > signifies that no effect was produced at that dose; format: functional
Mus musculus [4] = experiment: Effective dose for Antinociceptive activity expressed as Spontaneous activity was determined in mice antagonized by 1 mg/Kg of Mecamylamine: The symbol > signifies that no effect was produced at that dose; format: functional
Mus musculus [5] = organism: Mus musculus; experiment: Effective dose for Antinociceptive activity was determined in mice using Tail -Flick Assay; format: functional
Rattus norvegicus [6] = organism: Rattus norvegicus; experiment: Effective dose for Antinociceptive activity was determined in rat using drug discrimination assay; format: functional
Mus musculus [7] = experiment: Effective dose for Antinociceptive activity expressed as Spontaneous activity was determined in mice antagonized by 1 mg/Kg of Mecamylamine.; format: functional
Mus musculus [8] = experiment: Compound was tested to antagonize the antinociceptive actions of 2.5 mg/kg of (-)nicotine as measured in the tail-flick assay in mice; format: functional
[9] = Mus musculus, Tail, read-out: ED50
[10] = Rattus norvegicus, read-out: ED50

SMILES	Ki [1] [nM]	ED50 (Mus musculus [2]) [µmol/kg]	ED50 (Mus musculus [5]; [9]) [µmol/kg]	ED50 (Rattus norvegicus [6]; [10]) [µmol/kg]	ED50 (Mus musculus [7]; Mus musculus, read-out: ED50) [µmol/kg]	also measured
CCCc1ccc(C2CCCN2C)cn1 (racemic)	25	> 70	–	–	–	ED50 (Rattus norvegicus [3]): >20 µM/kg
CCCCCc1ccc(C2CCCN2C)cn1 (racemic)	72	> 50	–	–	–	ED50 (Mus musculus [4]): > 50 µmol/kg
Cc1ccc(C2CCCN2C)cn1 (racemic)	1.8	–	3.5	0.4	1	–
CN1CCC[C@H]1c1cccnc1 (racemic) [NICOTINE]	–	–	9.9	0.6	4.9	–
CCc1ccc(C2CCCN2C)cn1 (single isomer, unassigned; (-))	5.6	–	2.1	1.1	1.4	–
CCCc1ccc(C2CCCN2C)cn1 (single isomer, unassigned; (-))	22	–	–	–	–	ED50 (Rattus norvegicus [3]): >50 µM/kg; AD50 (Mus musculus [8]): 4.9 µM/kg; ED50 (Mus musculus [4]): > 35 µmol/kg
CCCCc1ccc(C2CCCN2C)cn1 (single isomer, unassigned; (-))	21	> 50	–	–	–	AD50 (Mus musculus [8]): 9.2 µM/kg
CN1CCC[C@H]1c1cccnc1 [NICOTINE]	–	–	–	–	–	ED50 (Mus musculus [5]): 7.4 µM/kg; ED50 (Rattus norvegicus [6]): 0.6 µM/kg; ED50 (Mus musculus [7]): 3.1 µM/kg
